Drawing on PubChem BioAssay (NCI), this text covers TGI for seven compounds.

Some test systems named below: COLO 205 colon; MCF7 breast; HCT-15 colon; K-562 leukemia; NCI-H460 lung; HCC-2998 colon; T-47D breast; TK-10 renal; RPMI-8226 leukemia; UACC-257 melanoma; U251 CNS; SNB-75 CNS; ACHN renal; SW-620 colon; M14 melanoma; SK-OV-3 ovarian; OVCAR-8 ovarian; UO-31 renal.
Test in all cases: inhibition of tumour cell growth, NCI panel, 48 h

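Exposure lasted 48 hours, with cells grown in 96-well plates and compounds tested at five concentrations. TGI marks complete inhibition of growth.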

`CN1CCCC2C(c3ccccc3)C(C3=NCCCC3)C(c3ccccc3)CC21` (stereo unspecified): the TGI is 66.1 µM in the experiment on COLO 205 colon; above 100 µM with MCF7 breast; above 100 µM in the experiment with HCT-15 colon; 37.6 µM in the experiment with K-562 leukemia; above 100 µM with NCI-H460 lung; 31.4 µM with HCC-2998 colon. The TGI is above 100 µM with T-47D breast; above 100 µM with TK-10 renal; 54.1 µM in the experiment with RPMI-8226 leukemia; 35 µM with UACC-257 melanoma; above 100 µM with U251 CNS; 38 µM in the experiment with SNB-75 CNS. Moreover, the TGI with ACHN renal is above 100 µM; in the experiment on SW-620 colon, above 100 µM; in the experiment on M14 melanoma it was 40.4 µM; with SK-OV-3 ovarian it was above 100 µM; with OVCAR-8 ovarian, above 100 µM.

Take `CCC(C)C(=O)OC1C(=O)OC2CC3C(C)=CC(=O)C(O)C3(C)C3C4(O)OCC23C1C(C)C4O` (stereo unspecified): the TGI is 0.757 µM in the experiment on COLO 205 colon; above 100 µM in the experiment with MCF7 breast; 0.944 µM in the experiment with HCT-15 colon; 0.659 µM with NCI-H460 lung; 0.227 µM with HCC-2998 colon; 0.158 µM in the experiment with T-47D breast. In addition, the TGI with TK-10 renal was 0.845 µM; in the experiment with RPMI-8226 leukemia, 0.784 µM; with UO-31 renal, 0.278 µM; in the experiment with UACC-257 melanoma, 1.34 µM; in the experiment with U251 CNS it was below 0.0317 µM; in the experiment with SNB-75 CNS, 0.113 µM. The TGI is 0.257 µM in the experiment on ACHN renal; 0.694 µM in the experiment on SW-620 colon; 0.0481 µM in the experiment on M14 melanoma; 4.11 µM with SK-OV-3 ovarian; 0.0634 µM with OVCAR-8 ovarian.

With `CC12Nc3c(Cl)cc(Cl)cc3N1C(=O)c1ccccc12` (stereo unspecified), the TGI in the experiment on COLO 205 colon, in the experiment on MCF7 breast, in the experiment on HCT-15 colon, with NCI-H460 lung, with HCC-2998 colon and in the experiment on T-47D breast was above 100 µM throughout. Also, the TGI with TK-10 renal, in the experiment on RPMI-8226 leukemia, in the experiment with UO-31 renal, in the experiment on UACC-257 melanoma, in the experiment with U251 CNS and with SNB-75 CNS was above 100 µM in each case. The TGI in the experiment on ACHN renal, with SW-620 colon, in the experiment with SK-OV-3 ovarian and in the experiment with OVCAR-8 ovarian was above 100 µM in each case.

In the case of `CC(C)(C)c1cc(S(=O)(=O)O)c2oc(-c3ccccc3)cc(=O)c2c1`, the TGI with COLO 205 colon, with MCF7 breast, in the experiment with HCT-15 colon, with K-562 leukemia, in the experiment with NCI-H460 lung and with HCC-2998 colon was above 100 µM each time. For the same compound, the TGI with T-47D breast, in the experiment on TK-10 renal, in the experiment with RPMI-8226 leukemia, with UO-31 renal, with UACC-257 melanoma and in the experiment with U251 CNS was above 100 µM in each case. Moreover, the TGI in the experiment with SNB-75 CNS, in the experiment on ACHN renal, in the experiment with SW-620 colon and with OVCAR-8 ovarian was above 100 µM throughout.

Turning to `CN(CCC(=O)N1CC(CCl)c2ccc([N+](=O)[O-])cc21)CCC(=O)N1CC(CCl)c2ccc([N+](=O)[O-])cc21` (stereo unspecified), the TGI is 31.6 µM in the experiment with COLO 205 colon; 23.5 µM with MCF7 breast; 25.9 µM with HCT-15 colon; 47.7 µM with K-562 leukemia; above 100 µM in the experiment on NCI-H460 lung; 18.2 µM in the experiment with HCC-2998 colon. Moreover, the TGI with T-47D breast is above 100 µM; in the experiment with TK-10 renal, 32 µM; in the experiment on RPMI-8226 leukemia, 13.9 µM; in the experiment on UACC-257 melanoma, 21.6 µM; in the experiment on U251 CNS, above 100 µM; in the experiment with SNB-75 CNS it was 19 µM. The TGI in the experiment on ACHN renal is 2.91 µM; with SW-620 colon, 29 µM; in the experiment on M14 melanoma, 21.7 µM; in the experiment on SK-OV-3 ovarian, above 100 µM; in the experiment on OVCAR-8 ovarian, 37.6 µM.

Take `COc1ccc(CC2Cc3ccccc3CCN2)cc1OC` (stereo unspecified): the TGI in the experiment with COLO 205 colon was 21.4 µM; with MCF7 breast, above 50 µM; with HCT-15 colon, above 50 µM; in the experiment on K-562 leukemia, above 50 µM; in the experiment on NCI-H460 lung it was above 50 µM; in the experiment on HCC-2998 colon, above 50 µM. For the same compound, the TGI in the experiment with T-47D breast, in the experiment on RPMI-8226 leukemia, in the experiment on UO-31 renal, with UACC-257 melanoma, with U251 CNS and with SNB-75 CNS was above 50 µM each time. The TGI in the experiment on SW-620 colon, in the experiment on M14 melanoma, in the experiment on SK-OV-3 ovarian and with OVCAR-8 ovarian was above 50 µM throughout.

For `Cc1cc(S(=O)(=O)Nc2nc(N)nc(N3N=CCC3C)n2)c(SCC(=O)O)cc1Cl` (stereo unspecified), the TGI in the experiment on COLO 205 colon, in the experiment on MCF7 breast, in the experiment with HCT-15 colon, with K-562 leukemia, with NCI-H460 lung and in the experiment on HCC-2998 colon was above 10 µM in each case. The TGI in the experiment on T-47D breast, in the experiment on TK-10 renal, with RPMI-8226 leukemia, in the experiment with UACC-257 melanoma, in the experiment with U251 CNS and with SNB-75 CNS was above 10 µM throughout. In addition, the TGI in the experiment on ACHN renal, in the experiment on SW-620 colon, in the experiment with M14 melanoma, in the experiment with SK-OV-3 ovarian and in the experiment on OVCAR-8 ovarian was above 10 µM in each case.
